Where “and” joins values, the source holds several entries; their conditions need not be identical. Equal entries are not always repeated. Where two headings read alike, the source gives them in different places. Non-standard residues stand in square brackets, D forms with d. Residues, ends and D or L forms follow the SMILES beside them. *: point of attachment. hPhe = N[CH](CCc1ccccc1)C(=O)O; 4Pal = N[CH](Cc1ccncc1)C(=O)O; AMC = Cc1cc(=O)oc2cc(N*)ccc12; Cbz = O=C(OCc1ccccc1)*
What was measured:
cruzain [1] = molecular target: T1, cruzain (Trypanosoma cruzi, UniProt P25779); assay: Kinetic parameters of peptide substrates for cruzain; type: biochemical; details: for Km / kcat / kcat/Km: pH 7.5, 25° C., 10% DMSO; for kcat rel: relative to Cbz-Phe-Arg-AMC
T1 sequence (P25779 123-467 limits assumed): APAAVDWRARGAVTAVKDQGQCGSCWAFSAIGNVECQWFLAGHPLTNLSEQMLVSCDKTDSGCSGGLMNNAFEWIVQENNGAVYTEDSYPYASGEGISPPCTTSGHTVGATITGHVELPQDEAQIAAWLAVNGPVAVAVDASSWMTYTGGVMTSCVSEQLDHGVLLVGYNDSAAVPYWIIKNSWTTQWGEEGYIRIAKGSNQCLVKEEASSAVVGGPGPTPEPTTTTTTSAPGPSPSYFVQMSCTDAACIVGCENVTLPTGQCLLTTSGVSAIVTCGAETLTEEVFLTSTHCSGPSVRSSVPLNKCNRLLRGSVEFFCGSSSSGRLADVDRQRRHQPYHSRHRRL
Experimental: (§1) All enzyme assays were performed at 25° C. Initial rates of the peptidolytic reaction catalyzed by cruzain were measured by monitoring the fluorescence generated by cleavage of the dipeptide-AMC bond. Assays were conducted in 96-well plates (Greiner; flat-bottom, clear black plates) in a total volume of 250 μL, containing either 50 mM MES (pH 7.5), 50 mM TAPSO, 100 mM DEA, 1 mM CHAPS, 1 mM Na2EDTA, 5 mM DTT, and 10% DMSO (v/v) or 50 mM sodium acetate (pH 5.5), 50 mM MES, 100 mM TEA, 1 mM CHAPS, 1 mM Na2EDTA, 5 mM DTT, and 10% DMSO (v/v). Substrates were dissolved in 100% DMSO and were then diluted 10-fold such that when added to reaction mixtures, final DMSO concentration was 10% (v/v). Reactions were initiated with the addition of 1-10 μL of cruzain (final concentrations: 0.1-3.0 nM (preincubation studies)). Fluorescence was measured on either a SpectraMax M5 (Molecular Devices) or a Synergy HTX (BioTek, Winooski, VT) microplate reader (λex=360 nm, λem=460 nm). Initial rates were determined from continuous kinetic time courses and calculated from the earliest time points, typically at less than 10 min.
Initial velocity data for cruzain-catalyzed reactions of fluorogenic peptide substrates were determined by fitting to eq 1 using GraphPad Prism 6.0 or SigmaPlot 12.0. For eq 1, kcat is the turnover number, [E]t is the concentration of active sites of cruzain, and Ka is the Michaelis constant for the substrate A. Cruzain concentrations were determined by spectrophotometric analysis of purified sample solutions as described.^44

cruzain [2] = molecular target: T1, cruzain; assay: biochemical; details: pH 7.5; for kinact/KI: irreversible inactivation
Experimental: as §1, with “Reactions were initiated with the addition of 1-10 μL of cruzain (final concentrations: 0.1-3.0 nM (preincubation studies)).” left out
(2) Enzyme and compound were preincubated over extended periods of time, and then aliquots were removed and diluted 50-fold to 100-fold into reaction mixtures containing 10 μM Cbz-Phe-Arg-AMC, followed by the assessment of the resulting time courses.
Data for time-dependent inhibition were fitted by several methods.
Values of kobs versus [inhibitor] were then replotted and fitted to eq 4 for which k3 and k4 represent the respective rates of formation and dissolution of the EI* complex as depicted in FIG. 9.
In addition, time-course data were fitted globally by two methods. First, expressions for vs, vi, and kobs were substituted into eq 3 to generate eq 6, which was used to fit time-course data at all concentrations of inhibitors simultaneously. Second, time-course data were fitted using KinTek Explorer as either a single-binding step model with the two kinetic parameters k3/Ki and k4 or a two-step binding mechanism as shown in FIG. 9 from which rate constants k1-k4 are determined (Supporting Information).
Enzyme Assays. The preparation of cruzain and 3CL^pro were described in previous publications.^8, 34 The evaluation of inhibitors was modified from our lab protocol and described briefly as follows.^35 All enzyme assays were conducted in 96-well, clear bottom, black plates at 25° C., and fluorescence emanating from product formation was measured using either a SpectraMax M5 (Molecular Devices) or a Synergy HTX (Biotek) microplate reader, with excitation at λex=360 nm and emission at λem=460 nm. […] Reactions were started with addition of enzyme (typically, to a final concentration of 0.2 nM for cruzain or 40 nM for 3CL^pro), and the time courses were recorded for 0.5-1 h.
Kinetic Data Analysis. All time-course data were fitted to eq. 1, wherein P is the fluorescence generated by formation of AMC or liberated ACC, C is the background constant, vi and vs are respectively initial-state and steady-state reaction rates, t is time, and kobs is the observed rate of conversion of the initial inhibited rate to the final inhibited rate.^46
Overall inhibition constants (Ki* values) were obtained by fitting vs/v0 to eq. 4, wherein vs and v0 are steady-state reaction rates in the presence and absence of inhibitor respectively, [S] and [I] represent the fixed concentration of substrate and variable inhibitor, Km is the Michaelis constant of the substrate.

[3] = apparent tight-binding inhibition constant, 25° C., read-out: Ki*
[4] = apparent initial inhibition constant, 25° C., read-out: Ki
[5] = obtained >10 minutes following initiation of reaction by addition of enzyme, read-out: Ki* Cruzain

Row | Compound | Km (cruzain [1]) | kcat (cruzain [1]) | kcat/Km (cruzain [1]) | kcat rel (cruzain [1]) | Ki (cruzain [2]; [3]) | Ki (cruzain [2]; [4]) | other results
1 | Cc1cc(=O)oc2cc(NC(=O)C(CCc3ccccc3)NC(=O)C(CC(C)C)NC(=O)OCc3ccccc3)ccc12 (stereo not drawn) [Compound S3, Cbz-Leu-hPhe-AMC] (Cbz-Leu-[hPhe]-{AMC}; configuration not given here) | 0.8 ± 0.2 µM | 3.0 ± 0.2 s⁻¹ | 4e+06 ± 1e+06 M⁻¹ s⁻¹ | 0.21 | – | – | –
2 | C[C@@H](/C=C/c1ccccn1)NC(=O)[C@H](Cc1ccccc1)NC(=O)OCc1ccccc1 [Compound 19, Benzyl ((S)-1-Oxo-3-phenyl-1-(((S,E)-4-(pyridin-2-yl)but-3-en-2-yl)amino)propan-2-yl)carbamate] | – | – | – | – | 4.8 ± 0.2 µM | – | –
3 | Cc1cc(=O)oc2cc(NC(=O)[C@H](Cc3ccccc3)NC(=O)[C@H](Cc3ccccc3)NC(=O)N3CCN(C)CC3)ccc12 [Compound S11, NMePip-Phe-Phe-AMC] | 14 ± 4 µM | 2.8 ± 0.06 s⁻¹ | 200000 ± 40000 M⁻¹ s⁻¹ | 0.29 | – | – | –
4 | Cc1cc(=O)oc2cc(NC(=O)C(CCc3ccccc3)NC(=O)C(Cc3ccccc3)NC(=O)N3CCN(C)CC3)ccc12 (stereo not drawn) [Compound S7, NMePip-Phe-hPhe-AMC] | 3.1 ± 0.3 µM | 4.0 ± 0.1 s⁻¹ | 1.3e+06 M⁻¹ s⁻¹ and 1.3e+06 ± 100000 M⁻¹ s⁻¹ | 0.42 | – | – | –
5 | Cc1cc(=O)oc2cc(NC(=O)[C@H](CCCN=C(N)N)NC(=O)[C@H](CC(C)C)NC(=O)OCc3ccccc3)ccc12 [Compound S4, Cbz-Leu-Arg-AMC] | 2.2 ± 0.3 µM | 8.4 ± 0.4 s⁻¹ | 3.8e+06 ± 700000 M⁻¹ s⁻¹ | 0.88 | – | – | –
6 | NC(=O)/C=C/[C@H](Cc1ccccc1)NC(=O)[C@H](Cc1ccccc1)NC(=O)OCc1ccccc1 [Compound 2, Benzyl ((S)-1-(((S,E)-5-Amino-5-oxo-1-phenylpent-3-en-2-yl)-amino)-1-oxo-3-phenylpropan-2-yl)carbamate] | – | – | – | – | – | 37 ± 2 µM | kinact/KI (cruzain [2]; 25° C.): 22 M⁻¹ s⁻¹ and 21.7 ± 0.8 M⁻¹ s⁻¹
7 | CN1CCN(C(=O)N[C@@H](Cc2ccccc2)C(=O)N[C@H](/C=C/C(N)=O)CCc2ccccc2)CC1 [Compound 4, N—((S)-1-(((S,E)-6-Amino-6-oxo-1-phenylhex-4-en-3-yl)amino)-1-oxo-3-phenylpropan-2-yl)-4-methylpiperazine-1-carboxamide] | – | – | – | – | – | 3.4 ± 0.4 µM | kinact/KI (cruzain [2]; 25° C.): 1900 ± 200 M⁻¹ s⁻¹
8 | NC(=O)/C=C/[C@H](CCc1ccccc1)NC(=O)[C@H](Cc1ccccc1)NC(=O)OCc1ccccc1 [Compound 3, Benzyl ((S)-1-(((S,E)-6-Amino-6-oxo-1-phenylhex-4-en-3-yl)-amino)-1-oxo-3-phenylpropan-2-yl)carbamate] | – | – | – | – | – | 3 ± 1 µM | kinact/KI (cruzain [2]; 25° C.): 1700 ± 500 M⁻¹ s⁻¹
9 | O=C(N[C@@H](Cc1ccccc1)C(=O)N[C@H](/C=C/c1ccncc1)Cc1ccccc1)OCc1ccccc1 [Compound 21, Benzyl ((S)-1-Oxo-3-phenyl-1-(((S,E)-1-phenyl-4-(pyridin-4-yl)-but-3-en-2-yl)amino)propan-2-yl)carbamate] | – | – | – | – | 5.5 ± 0.2 µM | – | –
10 | CC(C)C[C@H](NC(=O)OCc1ccccc1)C(=O)N[C@H](/C=C/c1ccccn1)CCc1ccccc1 [Compound 18, Benzyl ((S)-4-Methyl-1-oxo-1-(((S,E)-5-phenyl-1-(pyridin-2-yl)-pent-1-en-3-yl)amino)pentan-2-yl)carbamate] | – | – | – | – | 1.42 µM | 7.8 ± 0.6 µM | –
11 | Cc1cc(=O)oc2cc(NC(=O)C(Cc3ccncc3)NC(=O)C(Cc3ccccc3)NC(=O)OCc3ccccc3)ccc12 (stereo not drawn) [Compound S5, Cbz-Phe-(4-Pyr)Ala-AMC] (Cbz-Phe-[4Pal]-{AMC}; configuration not given here) | 3.7 µM | 7.5 ± 0.5 s⁻¹ | 2e+06 ± 400000 M⁻¹ s⁻¹ | 0.76 | – | – | –
12 | O=C(N[C@@H](Cc1ccccc1)C(=O)N[C@H](/C=C/c1ccncn1)Cc1ccccc1)OCc1ccccc1 [Compound 23, Benzyl ((S)-1-Oxo-3-phenyl-1-(((S,E)-1-phenyl-4-(pyrimidin-4-yl)-but-3-en-2-yl)amino)propan-2-yl)carbamate] | – | – | – | – | 1.14 ± 0.07 µM | 10.8 ± 1.4 µM | –
13 | CN1CCN(C(=O)N[C@@H](Cc2ccccc2)C(=O)N[C@H](/C=C/c2ccccn2)CCc2ccccc2)CC1 [Compound 14, 4-Methyl-N—((S)-1-oxo-3-phenyl-1-(((S,E)-5-phenyl-1-(pyridin-2-yl)pent-1-en-3-yl)amino)propan-2-yl)piperazine-1-carboxamide] | – | – | – | – | 3.4 µM | – | –
14 | O=C(N[C@@H](Cc1ccccc1)C(=O)N[C@H](/C=C/S(=O)(=O)c1ccccc1)Cc1ccccc1)OCc1ccccc1 [Compound 1] | – | – | – | – | – | – | Ki (cruzain [2]; [5]): 0.0036 µM
15 | Cc1cc(=O)oc2cc(NC(=O)[C@H](CCc3ccccc3)NC(=O)[C@H](Cc3ccccc3)NC(=O)OCc3ccccc3)ccc12 [Compound S2, Cbz-Phe-hPhe-AMC] (Cbz-Phe-[hPhe]-{AMC}) | 0.26 ± 0.06 µM | 2.0 ± 0.2 s⁻¹ | 8e+06 M⁻¹ s⁻¹ and 8e+06 ± 2e+06 M⁻¹ s⁻¹ | 0.21 | – | – | –
16 | N—((S)-1-(((2S,3S)-3-hydroxy-1,2,3,4-tetrahydronaphthalen-2-yl)amino)-1-oxo-3-phenylpropan-2-yl)-4-methylpiperazine-1-carboxamide and N—((S)-1-(((2R,3R)-3-hydroxy-1,2,3,4-tetrahydronaphthalen-2-yl)amino)-1-oxo-3-phenylpropan-2-yl)-4-methylpiperazine-1-carboxamide [Compound 50] | – | – | – | – | > 100 µM | – | Ki (cruzain [2]; [5]): > 100 µM
17 | O=C(N[C@@H](Cc1ccccc1)C(=O)N[C@H](CO)Cc1ccccc1O)OCc1ccccc1 [Compound 51] | – | – | – | – | – | – | Ki (cruzain [2]; [5]): > 10 µM
18 | Cc1cc(=O)oc2cc(NC(=O)C(CCc3ccccc3)NC(=O)C(CCCN=C(N)N)NC(=O)OCc3ccccc3)ccc12 (stereo not drawn) [Compound S10, Cbz-Arg-hPhe-AMC] | 6.8 µM | 4.9 s⁻¹ and 4.9 ± 0.1 s⁻¹ | 700000 ± 40000 M⁻¹ s⁻¹ | 0.51 | – | – | –
19 | Cc1cc(=O)oc2cc(NC(=O)[C@H](Cc3ccccc3)NC(=O)[C@H](Cc3ccccc3)NC(=O)OCc3ccccc3)ccc12 [Compound S9, Cbz-Phe-Phe-AMC] (Cbz-Phe-Phe-{AMC}) | 0.34 µM | 0.26 ± 0.01 s⁻¹ | 800000 ± 200000 M⁻¹ s⁻¹ | 0.03 | – | – | –
20 | C[n+]1ccc(/C=C/[C@H](Cc2ccccc2)NC(=O)[C@H](Cc2ccccc2)NC(=O)OCc2ccccc2)cc1 [Compound 22, 4-((S,E)-3-((S)-2-(((Benzyloxy)carbonyl)amino)-3-phenylpropanamido)-4-phenylbut-1-en-1-yl)-1-methylpyridin-1-ium Iodide] | – | – | – | – | 4 ± 0.1 µM | 92 ± 5 µM | –
